Results as given in paper PMC10435442, “Developing multitarget coumarin based anti-breast cancer agents: synthesis and molecular modeling study” (Scientific Reports, 2023).
In brackets after ≈: the same amount, converted by molar mass. Like-named read-outs stand apart in the source and are kept apart here.

Experiments:
[1] = in vitro; conditions: human, MCF-10A cells (nonmalignant breast)
[2] = biological target: EGFR (Homo sapiens, UniProt P00533); experiment: In vitro EGFR enzyme inhibition assay (ELISA); conditions: for EGFR %inh: lab report 01-11-2021
EGFR, sequence (P00533 25-1210): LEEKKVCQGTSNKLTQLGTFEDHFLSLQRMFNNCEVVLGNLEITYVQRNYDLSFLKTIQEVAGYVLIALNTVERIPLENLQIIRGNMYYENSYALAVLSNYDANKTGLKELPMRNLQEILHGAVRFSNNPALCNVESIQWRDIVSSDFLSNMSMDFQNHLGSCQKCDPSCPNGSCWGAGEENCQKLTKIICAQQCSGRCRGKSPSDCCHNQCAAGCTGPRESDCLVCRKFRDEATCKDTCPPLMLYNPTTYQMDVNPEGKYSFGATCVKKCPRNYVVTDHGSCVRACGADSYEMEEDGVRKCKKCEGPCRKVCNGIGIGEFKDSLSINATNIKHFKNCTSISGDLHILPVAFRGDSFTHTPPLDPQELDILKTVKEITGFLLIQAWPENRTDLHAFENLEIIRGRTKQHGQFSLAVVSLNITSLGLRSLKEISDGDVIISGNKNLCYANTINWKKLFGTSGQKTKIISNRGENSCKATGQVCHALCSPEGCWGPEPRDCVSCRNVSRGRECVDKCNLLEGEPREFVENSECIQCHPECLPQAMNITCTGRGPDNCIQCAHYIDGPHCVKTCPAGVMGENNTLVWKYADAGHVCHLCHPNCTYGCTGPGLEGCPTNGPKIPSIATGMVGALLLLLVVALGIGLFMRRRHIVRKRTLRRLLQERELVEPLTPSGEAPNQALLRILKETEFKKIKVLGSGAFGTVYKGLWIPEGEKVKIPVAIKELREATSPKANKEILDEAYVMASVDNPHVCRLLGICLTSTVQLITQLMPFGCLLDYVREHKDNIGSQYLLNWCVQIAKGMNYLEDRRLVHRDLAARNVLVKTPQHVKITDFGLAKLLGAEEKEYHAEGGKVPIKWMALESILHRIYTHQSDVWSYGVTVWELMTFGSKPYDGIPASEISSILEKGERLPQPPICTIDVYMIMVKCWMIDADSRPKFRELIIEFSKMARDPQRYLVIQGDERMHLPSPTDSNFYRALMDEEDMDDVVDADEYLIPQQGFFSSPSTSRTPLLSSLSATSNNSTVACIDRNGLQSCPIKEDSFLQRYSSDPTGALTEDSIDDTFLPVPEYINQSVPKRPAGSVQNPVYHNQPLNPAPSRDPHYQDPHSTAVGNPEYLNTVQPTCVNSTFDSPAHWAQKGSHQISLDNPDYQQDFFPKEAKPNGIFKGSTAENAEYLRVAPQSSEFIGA

[3] = system: MDA-MB-231; experiment: MTT cytotoxicity assay, MDA-MB-231; conditions: for IC50: Homo sapiens; for % viability: MDA; for anti-proliferative activity against MDA-MB-231 (in words): SAR discussion
[4] = system: MCF-10A; experiment: MTT cytotoxicity assay, nonmalignant MCF-10A; conditions: read-out: MCF-10A IC50; MTT, nonmalignant MCF-10A;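 further: MTT assay with absorbance read at 570 nm after 48 h exposure of cells to serial compound concentrations at 37 °C, testing selectivity against nonmalignant versus cancer cells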
[5] = system: MCF-7; experiment: MTT cytotoxicity assay, MCF-7; conditions: for IC50: Homo sapiens; for anti-proliferative activity against MCF-7 (in words): SAR discussion
[6] = EGFR IC50, lab report 01-11-2021, 10 compounds
[7] = MDA-MB-231, read-out: MDA-MBA-231 IC50
[8] = MDA-MB-231, read-out: cytotoxicity_IC50 MDA
[9] = MCF7, read-out: cytotoxicity_IC50 mcf7

SMILES	IC50 at 48 h [1] [µg/mL]	viability at 48 h, 0.4 ug [1] [%]	viability at 48 h, 1.6 ug [1] [%]	viability at 48 h, 6.25 ug [1] [%]	viability at 48 h, 25 ug [1] [%]	viability at 48 h, 100 ug [1] [%]	IC50 [2, 6] [µM]	IC50 ([2]; EGFR inhibition IC50) [µM]	Percentage above Reference IC50 (potency relative to erlotinib) [2] [%]	IC50 [3, 7] [µM]	IC50 [3, 8] [µg/mL]	% viability ([3]; 0.4ug (log conc. -0.41)) [%]	% viability ([3]; 1.6ug (log conc. 0.19)) [%]	% viability ([3]; 6.25ug (log conc. 0.8)) [%]	% viability ([3]; 100ug (log conc. 2)) [%]	IC50 [4] [µM]	IC50 ([5]; MCF7, read-out: MCF-7 IC50) [µM]	IC50 [5, 9] [µg/mL]	% viability ([5]; MCF7, 0.4ug) [%]	% viability ([5]; MCF7, 1.6ug) [%]	further results
O=C(COc1ccc2c(COC(=O)c3ccccc3)cc(=O)oc2c1)c1ccccc1 [Compound 7, [2-Oxo-7-(2-oxo-2-phenylethoxy)-2H-chromen-4-yl]methyl benzoate]	41.9 ± 2.04 (≈ 101 µM)	78.3	71.5	59.2	53.7	45.1	0.333	0.341 ± 0.019	24.633	56.7 ± 1.28	23.5 ± 1.28	75.96	68.64	59.243	38.991	101 ± 2.04	77.5 ± 1.94	32.1 ± 1.94	83.43	71.93	EGFR %inh ([2]; conc 0.01 (unit not given)): 30%; EGFR %inh ([2]; conc 0.1 (unit not given)): 42%; EGFR %inh ([2]; conc 1 (unit not given)): 67%; EGFR %inh ([2]; conc 10 (unit not given)): 89%; anti-proliferative activity against MDA-MB-231 (in words) [3]: poor anti-proliferative activity; % viability ([5]; MCF7, 6.3ug): 62.508%; % viability ([5]; MCF7, 25ug): 52.7829%; % viability ([5]; MCF7, 100ug): 40.856%; anti-proliferative activity against MCF-7 (in words) [5]: diminished the activity
CC(=O)Oc1ccc2c(COC(=O)c3ccccc3)cc(=O)oc2c1 [Compound 13, (7-Acetoxy-2-oxo-2H-chromen-4-yl)methyl benzoate]	166 ± 8.1 (≈ 491 µM)	89.7	81.1	73.6	63.3	52.2	0.364	0.363 ± 0.02	23.14	30.7 ± 0.56	10.4 ± 0.56	65.76	58.55	52.297	38.515	490 ± 8.1	111 ± 2.28	37.6 ± 2.28	80.82	70.97	% viability ([3]; 25ug (log conc. 1.4)): 46.9551%; % viability ([5]; MCF7, 6.3ug): 64.282%; % viability ([5]; MCF7, 25ug): 55.0733%; % viability ([5]; MCF7, 100ug): 40.88%
O=C(COc1ccc2c(CCl)cc(=O)oc2c1)c1ccc(Cl)cc1 [Compound 6, 4-(Chloromethyl)-7-(2-(4-chlorophenyl)-2-oxoethoxy)-2H-chromen-2-one]	56.6 ± 2.76 (≈ 156 µM)	78.1	70.4	62.2	54.8	46.8	0.154	0.154 ± 0.008	54.545	56.6 ± 1.12	20.5 ± 1.12	73.67	63.08	56.509	41.124	156 ± 2.76	217 ± 4.77	78.7 ± 4.77	87.56	78.06	EGFR %inh ([2]; conc 0.01 (unit not given)): 34%; EGFR %inh ([2]; conc 0.1 (unit not given)): 57%; EGFR %inh ([2]; conc 1 (unit not given)): 74%; EGFR %inh ([2]; conc 10 (unit not given)): 91%; % viability ([3]; 25ug (log conc. 1.4)): 49.4083%; anti-proliferative activity against MDA-MB-231 (in words) [3]: lower activity level; % viability ([5]; MCF7, 6.3ug): 71.906%; % viability ([5]; MCF7, 25ug): 59.463%; % viability ([5]; MCF7, 100ug): 45.972%; anti-proliferative activity against MCF-7 (in words) [5]: lower activity level
